Assay results reported in PubChem BioAssay AID2060511 (Molecular Pharmacology Branch, DTP, NCI, 2025).

Test system: 422866-222-R5-J1-PDC spheroids with HUVEC/MSC, viability
Experiment: Anticancer human tumor 422866-222-R5-J1-PDC patient-derived pancreatic adenocarcinoma cell line growth inhibition [GQUAD]
Conditions: for IC50: curve of first compound; for viability, T/C: stronger effect = lower value
Text: DNA G-quadruplex Stabilizer Agents in Combinations in Complex Spheroids
A high-throughput screen of multi-cell type tumor spheroids was designed to identify active combinations of DNA G-quadruplex stabilizer agents and targeted small molecules. Complex spheroids include a stromal component modeled by human endothelial cells (HUVEC) and fibroblasts modeled by human mesenchymal stem cells (MSCs). The concentration ranges selected for each drug and investigational agent were based upon clinically achievable concentrations if the clinical Cmax of the agent was known.
Compounds. The drugs and investigational agents: pidnarulex (CX-5461; NSC782164), APTO-253 (NSC789042), BRACO-19 (NSC847499), peposertib (NSC802822), ceralasertib (NSC780249), elimusertib (NSC800525), camonsertib (NSC841442), AZD-1390 (NSC803789), olaparib (NSC753686), talazoparib (NSC767125), ART-558 (NSC835418), sotorasib (NSC818433), MRTX-1133 (NSC836407), SN-38 (NSC673596), topotecan (NSC609699), etoposide (NSC141540), doxorubicin (NSC123127), gemcitabine (NSC613327), 5-fluorouracil (NSC19893), paclitaxel (NSC125973), vemurafenib (NSC761431), panobinostat (NSC761190), R-306465 (JNJ-16241199; NSC773264), adavosertib (NSC754352), TP-3654 (NSC805149), carboplatin (NSC241240), KSQ-4279 (NSC840948), and staurosporine (NSC755774) were obtained from the National Cancer Institute (NCI) Developmental Therapeutics Program Chemical Repository (34). The FDA-approved anticancer drug set is available from the NCI Developmental Therapeutics Program. […] The stock solutions were prepared in dimethyl sulfoxide (DMSO, Sigma-Aldrich, St. Louis, MO, cat. D2650) at 800-fold the tested concentration and stored at -70 degrees C prior to their use. All drugs and investigational agents were tested over a range starting from a high concentration at or near the clinical Cmax and decreasing in half-log increments. If the clinical Cmax for an agent had not been determined, the highest concentration tested was 10 microM.
2.3 Cell Culture. All cells were maintained in an incubator at 37 degrees C and 5% CO2 with 95% humidity. The PDC lines were cultured according to standard operating procedures established by the NCI PDMR. All PDCs were thawed and cultured in Matrigel-coated flasks prepared with a working solution of 1X Ham's F-12 nutrient mix, without supplementation (Invitrogen, cat. 11765054), 100 U/mL penicillin-streptomycin (Invitrogen, cat. 15140122), and 2.5% Matrigel (Corning Inc., cat. 354248) for the first three passages. The 857933-349-R-J2-PDC line was cultured in 6C/Colon 1B media, which includes advanced DMEM/F-12 (Thermo Fisher Scientific, cat. 12634028), 10 mM HEPES (Thermo Fisher Scientific, cat. 15630080), 1X GlutaMAX supplement (Thermo Fisher Scientific, cat. 35050061), 0.1 mg/mL primocin (InvivoGen, cat. ant-pm-2), 10% defined fetal bovine serum, heat inactivated (HyClone Laboratories Inc., cat. SH30070.03HI), 50% L-WRN conditioned media (ATCC, cat. CRL-3276), 1.25 mM N-Acetyl-L-cysteine (Sigma-Aldrich, cat. A9165), 10 mM nicotinamide (Sigma-Aldrich, cat. N0636), 1X B-27 supplement (Thermo Fisher Scientific, cat. 17504044), 1X N-2 supplement (Thermo Fisher Scientific, cat. 17502048), 10 microM Y-27632 dihydrochloride (Tocris Bioscience, cat. 1254), and 50 ng/mL human EGF recombinant protein (Thermo Fisher Scientific, cat. PHG0311). The 485176-168-R4-J1-PDC line was cultured in Panc media, which includes all 6C/Colon 1B media components plus 100 ng/mL human FGF-10 (Thermo Fisher Scientific, cat. 100-26), 500 nM SB-431542 (Selleckchem, cat. S1067), and gastrin (Tocris, cat. 3006).
[…]

[1] = second compound 0.0316 µM, first compound 0.0316 µM
[2] = second compound 0.0316 µM, first compound 0.1 µM
[3] = second compound 0.0316 µM, first compound 0.316 µM
[4] = second compound 0.0316 µM, first compound 1 µM
[5] = second compound 0.0316 µM, first compound 3.16 µM
[6] = second compound 0.0316 µM, first compound 10 µM
[7] = second compound 0.1 µM, first compound 0.0316 µM
[8] = second compound 0.1 µM, first compound 0.1 µM
[9] = second compound 0.1 µM, first compound 0.316 µM
[10] = second compound 0.1 µM, first compound 1 µM
[11] = second compound 0.1 µM, first compound 3.16 µM
[12] = second compound 0.1 µM, first compound 10 µM
[13] = second compound 0.316 µM, first compound 0.0316 µM
[14] = second compound 0.316 µM, first compound 0.1 µM
[15] = second compound 0.316 µM, first compound 0.316 µM
[16] = second compound 0.316 µM, first compound 1 µM
[17] = second compound 0.316 µM, first compound 3.16 µM
[18] = second compound 0.316 µM, first compound 10 µM
[19] = second compound 1 µM, first compound 0.0316 µM
[20] = second compound 1 µM, first compound 0.1 µM
[21] = second compound 1 µM, first compound 0.316 µM
[22] = second compound 1 µM, first compound 1 µM
[23] = second compound 1 µM, first compound 3.16 µM
[24] = second compound 1 µM, first compound 10 µM
[25] = second compound 3.16 µM, first compound 0.0316 µM
[26] = second compound 3.16 µM, first compound 0.1 µM
[27] = second compound 3.16 µM, first compound 0.316 µM
[28] = second compound 3.16 µM, first compound 1 µM
[29] = second compound 3.16 µM, first compound 3.16 µM
[30] = second compound 3.16 µM, first compound 10 µM
[31] = second compound 10 µM, first compound 0.0316 µM
[32] = second compound 10 µM, first compound 0.1 µM
[33] = second compound 10 µM, first compound 0.316 µM
[34] = second compound 10 µM, first compound 1 µM
[35] = second compound 10 µM, first compound 3.16 µM
[36] = second compound 10 µM, first compound 10 µM
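Further: spheroids exposed to compounds for seven days before reading.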
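Wherever viability, T/C is given: percent viability relative to DMSO vehicle control taken as 100%.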

## Nc1ccn(C2OC(CO)C(O)C2(F)F)c(=O)n1 (centres undefined) + CN(C)c1ccc(Nc2c3ccc(NC(=O)CCN4CCCC4)cc3nc3cc(NC(=O)CCN4CCCC4)ccc23)cc1
Second compound 0.0316 µM
  IC50: 3.23 µM
Second compound 0.1 µM
  IC50: 0.869 µM
Second compound 0.316 µM
  IC50: 1.08 µM
Second compound 1 µM
  IC50: 0.451 µM
Second compound 3.16 µM
  IC50: 0.277 µM
Second compound 10 µM
  IC50: > 10 µM
[1]
  viability, T/C: 89.5%
[2]
  viability, T/C: 71.6%
[3]
  viability, T/C: 74.6%
[4]
  viability, T/C: 54.4%
[5]
  viability, T/C: 52.5%
[6]
  viability, T/C: 41.5%
[7]
  viability, T/C: 104%
[8]
  viability, T/C: 70.8%
[9]
  viability, T/C: 66.5%
[10]
  viability, T/C: 43.5%
[11]
  viability, T/C: 44.6%
[12]
  viability, T/C: 39.2%
[13]
  viability, T/C: 91.4%
[14]
  viability, T/C: 68.4%
[15]
  viability, T/C: 54.4%
[16]
  viability, T/C: 57.1%
[17]
  viability, T/C: 48.2%
[18]
  viability, T/C: 36.5%
[19]
  viability, T/C: 72.7%
[20]
  viability, T/C: 59%
[21]
  viability, T/C: 57.6%
[22]
  viability, T/C: 39.6%
[23]
  viability, T/C: 41.3%
[24]
  viability, T/C: 34.7%
[25]
  viability, T/C: 75.6%
[26]
  viability, T/C: 67.6%
[27]
  viability, T/C: 48.7%
[28]
  viability, T/C: 35%
[29]
  viability, T/C: 39.4%
[30]
  viability, T/C: 39.2%
[31]
  viability, T/C: 73.6%
[32]
  viability, T/C: 57.9%
[33]
  viability, T/C: 57.9%
[34]
  viability, T/C: 50.9%
[35]
  viability, T/C: 51.8%
[36]
  viability, T/C: 49%

## O=C(NO)c1cnc(N2CCN(S(=O)(=O)c3ccc4ccccc4c3)CC2)nc1 + CN(C)c1ccc(Nc2c3ccc(NC(=O)CCN4CCCC4)cc3nc3cc(NC(=O)CCN4CCCC4)ccc23)cc1
Second compound 0.0316 µM
  IC50: 0.792 µM
Second compound 0.1 µM
  IC50: 0.944 µM
Second compound 0.316 µM
  IC50: 0.838 µM
Second compound 1 µM
  IC50: 0.856 µM
Second compound 3.16 µM
  IC50: 0.566 µM
Second compound 10 µM
  IC50: 1.11 µM
[1]
  viability, T/C: 93.7%
[2]
  viability, T/C: 115%
[3]
  viability, T/C: 79.9%
[4]
  viability, T/C: 37.4%
[5]
  viability, T/C: 29.4%
[6]
  viability, T/C: 1.05%
[7]
  viability, T/C: 100%
[8]
  viability, T/C: 101%
[9]
  viability, T/C: 89.8%
[10]
  viability, T/C: 38.5%
[11]
  viability, T/C: 32.1%
[12]
  viability, T/C: 1.23%
[13]
  viability, T/C: 98%
[14]
  viability, T/C: 111%
[15]
  viability, T/C: 67.4%
[16]
  viability, T/C: 37.4%
[17]
  viability, T/C: 37.1%
[18]
  viability, T/C: 1.09%
[19]
  viability, T/C: 92.5%
[20]
  viability, T/C: 92.9%
[21]
  viability, T/C: 66.8%
[22]
  viability, T/C: 38.1%
[23]
  viability, T/C: 34%
[24]
  viability, T/C: 1.34%
[25]
  viability, T/C: 87.6%
[26]
  viability, T/C: 94.6%
[27]
  viability, T/C: 54.5%
[28]
  viability, T/C: 30.7%
[29]
  viability, T/C: 36.1%
[30]
  viability, T/C: 1.79%
[31]
  viability, T/C: 89.6%
[32]
  viability, T/C: 88.2%
[33]
  viability, T/C: 72.2%
[34]
  viability, T/C: 38.4%
[35]
  viability, T/C: 41.3%
[36]
  viability, T/C: 1.96%
